In patent publication US9162991B2 (University of Ottawa, priority 2007, dated 2015):
pIC50: −log10 of the molar value. “Also recorded” adds a separate entry of the source. Read-outs that look alike come from different tables or passages of the source.

How the values were obtained:
[1] = molecular target: recombinant guinea pig liver TGase (Cavia cutleri (Guinea pig), UniProt P08587); experiment: biochemical; format: biochemical
Experimental: ENZYME INHIBITION BY COMPOUNDS 14a-c, 14l, 15a, 15d-k, 15m-q, 30a, 30r, 30t, 37a and 38a: For enzymology studies of these compounds, recombinant guinea pig liver TGase was expressed in Escherichia coli and effectively purified (Gillet, S. M. F. G. et al J. N., Prot. Exp. & Purif. 2004, 33, 256).
The mode of inhibition was determined for the representative lead compound 14a through non-linear regression of initial rate data to the Michaelis-Menten equation (FIG. 1).
For the ensuing enzymatic tests, recombinant guinea pig liver TGase was expressed in E. Coli and effectively purified.
Kinetic runs were recorded on a Cary 100 BIO UV-Visible spectrophotometer at 405 nm and 25° C., in a buffer composed of 50 mM CaCl2, 50 μM EDTA and 0.1 M MOPS (pH 7.0). All aqueous solutions were prepared using de-ionized water purified from the Millipore BioCell system. […] Factor XIIIa activity was measured using a coupled-enzyme assay (Day, N.; Keillor, J. W. Anal. Biochem. 1999, 274, 141). Factor XIIIa, was added to a final concentration of 0.89 μg/mL to a pH 8.5 solution (0.1 M Tris-HCl, 5 mM CaCl2 and 10 mM DDT) of 0.5 mM β-NADH, 3.3 mM Na-acetyl-L-lysine methyl ester, 10 mM α-ketoglutaric acid sodium salt and 297 μg/mL glutamate dehydrogenase (GDH).

[2] = molecular target: human caspase 3 (Homo sapiens (Human), UniProt P42574); experiment: Caspase 3 activity, release of p-nitroaniline from Ac-Asp-Glu-Val-Asp-pNA; format: biochemical
human caspase 3, sequence (P42574 29-175): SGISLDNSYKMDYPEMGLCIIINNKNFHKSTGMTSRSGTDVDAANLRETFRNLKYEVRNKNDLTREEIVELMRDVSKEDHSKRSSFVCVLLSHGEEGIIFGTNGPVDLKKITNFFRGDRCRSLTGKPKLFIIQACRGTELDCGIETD
human caspase 3, sequence (P42574 176-277): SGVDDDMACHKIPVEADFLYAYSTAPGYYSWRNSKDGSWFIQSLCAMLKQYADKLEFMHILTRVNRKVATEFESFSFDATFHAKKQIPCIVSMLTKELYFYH
Description: To examine the enzyme selectivity of this new family of TG2 inhibitors, several representative compounds (14a, 15p, 18a, 28a and 30a) were further tested as inhibitors of related enzymes. For these studies, Factor XIIIa was chosen because it is a member of the family of transglutaminase enzymes and its inhibition in vivo may lead to compromised coagulation and toxicity. Caspase 3 was also chosen because as a cysteine protease, its acyl transfer mechanism is phenomenologically similar to that of TGase. At concentrations approaching the limits of their solubility, most of those compounds had no discernable effect on the activities of either of these enzymes (data not shown). […] This selectivity bodes well for in vivo application.
The subsequent absorbance decrease was followed at 340 nm at 37° C. Caspase 3 activity was measured by monitoring the release of p-nitroaniline (pNA) (λabs=405 nm) from the peptidic substrate Ac-Asp-Glu-Val-Asp-pNA (20 μM) catalyzed by human caspase 3 (Sigma, 250 ng/mL) at pH 7.4 (18.6 mM HEPES, 1.9 mM EDTA, 0.09% CHAPS and 4.7 mM DTT).

[3] = test system: tissue transglutaminase (TG2); experiment: Cytochrome c (cytC) promoter/luciferase reporter assay in CHO cells; format: cell-based, Chinese Hamster; details: 100 μM, CHO cells incubated 12 hours, luminescence of cell lysate
Description: IN VITRO STUDIES FOR COMPOUND 15a: A cytochrome c (cytC) promoter/luciferase reporter assay (illustrated in FIG. 6) was used to assess tissue transglutaminase (TG2) activity for compound 15a. In the absence of TG2, transcription factors bind to the cytC promoter region of the luciferase gene, and the level of expressed luciferase is detected from the luminescence of the Chinese Hamster Ovary (CHO) cell lysate (A). The level of effective cytC promoter is sensitive to endogenous TG2 co-expressed in CHO cells. High TG2 expression results in low promoter activity, presumably because the transcription factors that bind to the cytC promoter have Gln-rich sequences that are modified by TG2-mediated hydrolysis or transamidation (B). In the presence of TG2 inhibitors, TG2-induced silencing of the promoter is repressed and luciferase is detected in the lysate once more (C). In this assay, CHO cells are incubated in the presence of the inhibitor compound for 12 hours, after which the luminescence of cell lysate is measured, as an indication of the level of TG2 inhibition.

[4] = Table 3, influence of the acylated moiety, read-out: IC50 (μM), class symbol
[5] = Table 3, value in brackets, read-out: IC50
[6] = Table 1, substituent on the cinnamoyl aromatic group, read-out: IC50 (μM), class symbol
[7] = Table 1, value in brackets, read-out: IC50
[8] = Table 2, influence of the cinnamoyl double bond, read-out: IC50 (μM), class symbol
[9] = Table 2, value in brackets or words, read-out: IC50

recombinant guinea pig liver TGase, sequence (P08587 whole entry): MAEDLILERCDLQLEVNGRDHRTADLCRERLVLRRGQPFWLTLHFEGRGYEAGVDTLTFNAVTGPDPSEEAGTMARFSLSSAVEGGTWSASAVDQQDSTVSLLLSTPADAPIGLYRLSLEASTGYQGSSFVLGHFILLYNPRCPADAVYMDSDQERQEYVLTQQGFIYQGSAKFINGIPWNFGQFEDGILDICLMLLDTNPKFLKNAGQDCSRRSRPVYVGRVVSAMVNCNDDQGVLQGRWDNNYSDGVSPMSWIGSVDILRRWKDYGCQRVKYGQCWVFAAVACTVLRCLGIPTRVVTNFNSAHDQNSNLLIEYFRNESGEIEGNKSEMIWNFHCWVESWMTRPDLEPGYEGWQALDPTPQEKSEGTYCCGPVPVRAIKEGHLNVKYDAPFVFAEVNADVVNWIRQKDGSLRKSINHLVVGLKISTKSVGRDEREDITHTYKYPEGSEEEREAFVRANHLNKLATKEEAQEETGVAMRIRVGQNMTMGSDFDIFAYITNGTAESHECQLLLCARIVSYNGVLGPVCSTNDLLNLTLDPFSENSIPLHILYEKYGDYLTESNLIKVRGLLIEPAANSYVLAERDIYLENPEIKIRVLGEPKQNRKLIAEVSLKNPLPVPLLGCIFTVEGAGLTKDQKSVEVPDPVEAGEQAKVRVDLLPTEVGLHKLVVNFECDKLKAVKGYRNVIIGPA

`O=C(/C=C/c1ccc([N+](=O)[O-])cc1)c1cc2ccccc2oc1=O` [Compound 28a, 3-((E)-3-(4-Nitrophenyl)acryloyl)-2H-chromen-2-one] was tested, and the IC50 [1, 4] was 20 to 50 µM, the pIC50 [1, 5] was 4.32 and the pIC50 ([1]; read-out: IC50) was 4.32. For the same compound, the inhibition at 6 µM ([2]; at 6 μM) was 28% and the “effect on caspase 3 activity” value ([2]; at concentrations approaching the limits of solubility) was “slight inhibitory activity”.
For `O=C(/C=C/c1ccc([N+](=O)[O-])cc1)N1CCCOC1` [Compound 29a, (E)-3-(4-Nitrophenyl)-1-(1,3-oxazinan-3-yl)prop-2-en-1-one], the “TGase inhibitory activity (in words)” value [1] was “little inhibitory potency”, the IC50 [1, 4] was greater than 50 µM and the pIC50 [1, 5] was less than 3.70.
For `CC(=O)Nc1ccc(/C=C/C(=O)c2cccnc2)cc1` [Compound 30t, (E)-3-(4-acetylaminophenyl)-1-(pyridin-3-yl)prop-2-en-1-one], the “TGase inhibitory activity (in words)” value [1] was “as effective as the benzotriazolyl amide inhibitors”, the IC50 [1, 6] was 20 to 50 µM and the pIC50 [1, 7] was 4.55.
For `O=C(/C=C/c1ccc([N+](=O)[O-])cc1)c1cn(Cc2ccccc2[N+](=O)[O-])nn1` [Compound 4h, (E)-1-(1-(2-nitrobenzyl)-1H-1,2,3-triazol-4-yl)-3-(4-nitrophenyl)prop-2-en-1-one], the “reduction in potency (fold)” value [1] was 4-7 fold, the IC50 ([1]; IC50 (μM), Table 6, value in brackets) was 10.7 µM and the IC50 ([1]; IC50 (μM), class symbol, Table 6, Huisgen [3+2] cycloaddition products) was less than 20 µM.
For `O=C(/C=C/c1ccc([N+](=O)[O-])cc1)c1cccnc1` [Compound 30a, (E)-3-(4-nitrophenyl)-1-(pyridin-3-yl)prop-2-en-1-one], the “TGase inhibitory activity (in words)” value [1] was “as effective as the benzotriazolyl amide inhibitors”, the IC50 [1, 6] was 20 to 50 µM and the pIC50 [1, 7] was 4.68.
Work on `O=C(/C=C/c1ccccc1Cl)n1nnc2ccccc21` [Compound 15m, o-Chlorocinnamoyl benzotriazolyl amide] yielded an IC50 [1, 6] greater than 50 µM and a pIC50 [1, 7] of less than 4.00.
With `O=C(/C=C/c1ccc([N+](=O)[O-])cc1)c1cn(Cc2ccccn2)nn1` [Compound 4e, (E)-3-(4-nitrophenyl)-1-(1-((pyridin-2-yl)methyl)-1H-1,2,3-triazol-4-yl)prop-2-en-1-one] the pIC50 [1] was greater than 4.70, the “TGase inhibitory activity (in words)” value [1] was “lower potency” and the pIC50 ([1]; read-out: IC50) was 4.74.
With `O=C(CCc1ccc([N+](=O)[O-])cc1)n1nnc2ccccc21` [Compound 33a, p-Nitrohydrocinnamoyl benzotriazolylamide] the “TGase inhibitory activity (in words)” value [1] was “significant loss of activity”, the IC50 [1, 8] was greater than 50 µM and the pIC50 [1, 9] was less than 3.70.
`O=C(/C=C/c1ccc([N+](=O)[O-])cc1)n1nnc2ccccc21` [Compound 15a, p-Nitrocinnamoyl benzotriazolyl amide] was tested, and the “TGase inhibitory activity (in words)” value [1] was “Inhibitory activity was observed”, the IC50 [1, 6] was greater than 50 µM and the pIC50 [1, 7] was 4.13. For the same compound, the IC50 [1, 8] was greater than 50 µM, the pIC50 [1, 9] was 4.13 and the IC50 [1, 4] was greater than 50 µM. For the same compound, the “inhibition of TG2-mediated silencing of cytC promoter” value [3] was “complete inhibition”.
Work on `CN(Cc1ccccc1)C(=O)/C=C/c1ccc([N+](=O)[O-])cc1` [Compound 27a, p-Nitrocinnamoyl methylbenzyl amide] yielded an IC50 [1, 4] greater than 50 µM.
`O=C(/C=C/c1ccc([N+](=O)[O-])cc1)c1cn(Cc2ccccc2)nn1` [Compound 4a, (E)-1-(1-benzyl-1H-1,2,3-triazol-4-yl)-3-(4-nitrophenyl)prop-2-en-1-one] gave a pIC50 [1] greater than 4.70 and a pIC50 ([1]; read-out: IC50) of 5.37.
`O=C(Nc1ccc(C=CC(=O)n2nnc3ccccc32)cc1)OCC1c2ccccc2-c2ccccc21` [Compound 15p, p-(9-Fluorenylmethoxycarbonylamino)cinnamoyl benzotriazolyl amide] was tested, and the IC50 [1, 6] was 20 to 50 µM and the pIC50 [1, 7] was 4.60.
For `CC(C)(C)OC(=O)/C=C/c1ccc([N+](=O)[O-])cc1` [Compound 20a, p-Nitrocinnamoyl t-butyl ester], the “TGase inhibitory activity (in words)” value [1] was “little inhibitory activity” and the IC50 [1, 4] was greater than 50 µM.
With `O=C(/C=C/c1ccc(Cl)cc1)n1nnc2ccccc21` [Compound 15k, p-Chlorocinnamoyl benzotriazolyl amide] the IC50 [1, 6] was greater than 50 µM and the pIC50 [1, 7] was less than 4.00.
With `O=C(/C=C/c1ccc([N+](=O)[O-])cc1)OCc1ccccc1` [Compound 19a, p-Nitrocinnamoyl benzyl ester] the “TGase inhibitory activity (in words)” value [1] was “little inhibitory activity” and the IC50 [1, 4] was greater than 50 µM.
In the case of `COc1ccc(/C=C/C(=O)n2nnc3ccccc32)cc1` [Compound 15d, p-Methoxycinnamoyl benzotriazolyl amide], the IC50 [1, 6] was greater than 50 µM and the pIC50 [1, 7] was less than 4.00.
In the case of `O=C(/C=C/c1ccc([N+](=O)[O-])cc1)N1CCc2ccccc21` [Compound 25a, p-Nitrocinnamoyl indolinyl amide], the IC50 [1, 4] was greater than 50 µM.
In the case of `O=C(/C=C/c1ccc([N+](=O)[O-])cc1)c1cn(Cc2cnn[nH]2)nn1` [Compound 4m, (E)-1-(1-((3H-1,2,3-triazol-4-yl)methyl)-1H-1,2,3-triazol-4-yl)-3-(4-nitrophenyl)prop-2-en-1-one], the pIC50 [1] was 4.30 to 4.70, the “TGase inhibitory activity (in words)” value [1] was “relatively higher IC50 value; also recorded: high IC50” and the pIC50 ([1]; read-out: IC50) was 4.48.
For `CC(C)(C)OC(=O)Nc1cccc(C=CC(=O)n2nnc3ccccc32)c1` [Compound 15o, m-(tert-Butoxycarbonylamino)cinnamoyl benzotriazolyl amide], the IC50 [1, 6] was 20 to 50 µM and the pIC50 [1, 7] was 4.41.
`O=C(/C=C/c1ccc([N+](=O)[O-])cc1)N1CCCCC1` [Compound 24a, p-Nitrocinnamoyl piperidinyl amide] was tested, and the pIC50 [1] was less than 4.30.
Work on `Cc1ccccc1/C=C/C(=O)n1nnc2ccccc21` [Compound 15i, o-Methylcinnamoyl benzotriazolyl amide] yielded an IC50 [1, 6] greater than 50 µM and a pIC50 [1, 7] of less than 4.00.
Work on `O=C(C=Cc1ccccc1[N+](=O)[O-])On1nnc2ccccc21` [Compound 14c, o-Nitrocinnamoyl oxybenzotriazolyl amide] yielded an IC50 [1, 6] greater than 50 µM and a pIC50 [1, 7] of less than 4.00.
With `O=C(c1ccc([N+](=O)[O-])cc1)n1nnc2ccccc21` [Compound 34a, p-Nitrobenzoyl benzotriazolyl amide] the “IC50 (μM)” value ([1]; Table 2, value in brackets or words) was “irreversible” and the mode of inhibition ([1]; versus acyl-donor substrate) was “irreversible inhibitor”.
With `O=C(/C=C/C=C/c1ccc([N+](=O)[O-])cc1)n1nnc2ccccc21` [Compound 37a, (2E,4E)-5-(4-Nitrophenyl)penta-2-4-dienoyl benzotriazolyl amide] the “TGase inhibitory activity (in words)” value [1] was “Neither of these two extended conjugated compounds showed significant inhibition”, the IC50 [1, 8] was greater than 50 µM and the pIC50 [1, 9] was less than 3.70.
